13 molecules from ChEMBL document CHEMBL1201862, “PubChem BioAssay data set” (2004) can be followed below.

Molecules are shown by their SMILES.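 How tested: cells in 96-well plates exposed to compound for 48 hours at five concentrations. Abbreviation: GI50, concentration required for 50% inhibition of growth.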 Activity calls are given as the source filed them. Cut-off read from the data, not from the text of the source: active = GI50 up to about 1.1 µM and inactive = higher. Some results are limits rather than exact numbers.

Some test systems named below: UO-31; SN12C; U-251; HT-29; K562; UACC-62; NCI-H522; OVCAR-8; HCT-116; A549; SF-268; NCI-H226; HCT-15; MOLT-4; CCRF-CEM; CAKI-1; HCC 2998; SW-620; OVCAR-5.
What all share (test): inhibition of tumour cell growth, NCI panel, 48 h

On to `O=C(NN1C(=O)C(Cl)C1c1ccc(O)cc1)c1ccccc1O` (stereo unspecified), for which the GI50 in the assay on UO-31 was 15.6 µM (inactive); with SN12C it was 23 µM (inactive); in the assay with U-251, 14.3 µM (inactive); with HT-29, 18.4 µM (inactive); with K562, 22.4 µM (inactive); in the assay on UACC-62, 17.2 µM (inactive). The GI50 in the assay with NCI-H522 was 18.1 µM (inactive); in the assay on OVCAR-8, 13.5 µM (inactive); with HCT-116, 13.7 µM (inactive); in the assay with A549 it was 22.4 µM (inactive); in the assay on SF-268, 18.8 µM (inactive); in the assay on NCI-H226, 16 µM (inactive). The figures for the GI50 with HCT-15, in the assay on MOLT-4 and with CCRF-CEM were 14.6 µM, 27.6 µM (inactive) and 7.11 µM (inactive), respectively.

As to `Cc1cc(C)[n+]2c(c1)C=CC2.[O-][Cl+3]([O-])([O-])[O-]`, the GI50 in the assay on UO-31 is 39.4 µM (inactive); in the assay on SN12C, 31.2 µM (inactive); in the assay on U-251 it was 29.7 µM (inactive); in the assay with CAKI-1 it was 15.6 µM (inactive); in the assay with HT-29, 15.9 µM (inactive); with HCC 2998 it was > 100 µM (inactive). Further, the GI50 in the assay with NCI-H522 is 3.21 µM (inactive); in the assay on OVCAR-8, 28.6 µM (inactive); with A549, 18.1 µM (inactive); in the assay on SW-620, 4.18 µM (inactive); with OVCAR-5, > 100 µM (inactive); in the assay with SF-268 it was 64 µM (inactive). The GI50 in the assay with NCI-H226 was 15.6 µM (inactive).

Consider `COc1ccc(CC#C/C=C/C(=O)NCC(C)C)cc1`, for which the GI50 in the assay on UO-31 is > 100 µM (inactive); with SN12C it was > 100 µM (inactive); with U-251 it was > 100 µM (inactive); in the assay on HT-29, > 100 µM (inactive); in the assay on HCC 2998, > 100 µM (inactive); with K562, 79.3 µM (inactive). Also, the GI50 in the assay on UACC-62, in the assay with NCI-H522, with OVCAR-8, in the assay on HCT-116, in the assay on A549 and in the assay on SW-620 was > 100 µM (inactive) in each case. Further, the GI50 in the assay with OVCAR-5 is > 100 µM (inactive); in the assay on SF-268, > 100 µM (inactive); with NCI-H226, > 100 µM (inactive); in the assay with HCT-15 it was above 100 µM; in the assay with MOLT-4, > 100 µM (inactive); with CCRF-CEM, 74.1 µM (inactive).

`C/C(CC1SCCCS1)=C(/C)CC1SCCCS1`: the GI50 with UO-31, in the assay on SN12C, in the assay with CAKI-1, in the assay on HT-29, in the assay on HCC 2998 and with K562 was > 100 µM (inactive) each time. The GI50 with UACC-62, in the assay with OVCAR-8, in the assay with HCT-116, in the assay with A549, with SW-620 and with OVCAR-5 was > 100 µM (inactive) in each case. Moreover, the GI50 with SF-268 was > 100 µM (inactive); in the assay with NCI-H226, > 100 µM (inactive); with HCT-15, above 100 µM; in the assay on MOLT-4 it was > 100 µM (inactive); in the assay on CCRF-CEM, > 100 µM (inactive).

For the molecule `O=C(/C=C\c1ccc(Cl)cc1Cl)c1cccs1`, the GI50 is 11.9 µM (inactive) with UO-31; 17.4 µM (inactive) in the assay with SN12C; 24.2 µM (inactive) in the assay on CAKI-1; 23.4 µM (inactive) in the assay with HT-29; 21.1 µM (inactive) in the assay with K562; 14.7 µM (inactive) with UACC-62. The GI50 is 21.2 µM (inactive) in the assay on NCI-H522; 12 µM (inactive) in the assay with OVCAR-8; 9.57 µM (inactive) with HCT-116; 24.9 µM (inactive) in the assay on A549; 12.5 µM (inactive) in the assay on SW-620; 20 µM (inactive) with OVCAR-5. For the same molecule, the GI50 in the assay on SF-268 is 23.4 µM (inactive); in the assay on NCI-H226 it was 20.7 µM (inactive); in the assay with HCT-15 it was 14.4 µM; in the assay with MOLT-4, 30.2 µM (inactive); in the assay with CCRF-CEM, 21.3 µM (inactive).

`CC(=O)NCc1c(C(N)=O)ncn1Cc1ccccc1`: the GI50 in the assay on SN12C, in the assay on U-251, with CAKI-1, in the assay with HT-29, in the assay on HCC 2998 and with K562 was > 100 µM (inactive) each time. The GI50 is > 100 µM (inactive) in the assay with UACC-62; > 100 µM (inactive) in the assay on OVCAR-8; > 100 µM (inactive) in the assay on HCT-116; > 100 µM (inactive) with A549; > 100 µM (inactive) in the assay on SW-620; above 100 µM in the assay with HCT-15. The GI50 with MOLT-4 and in the assay with CCRF-CEM was > 100 µM (inactive) in each case.

As for `O/N=C1/C(=C/c2ccc(Oc3ccccc3)cc2)CCCC1C(NO)c1ccc(Oc2ccccc2)cc1` (stereo unspecified), the GI50 was 21 µM (inactive) in the assay on UO-31; 22.8 µM (inactive) in the assay on SN12C; 51.2 µM (inactive) in the assay on U-251; 33.2 µM (inactive) in the assay with CAKI-1; 16.1 µM (inactive) in the assay with HT-29; 32.5 µM (inactive) in the assay with HCC 2998. Besides, the GI50 is 19.8 µM (inactive) in the assay with K562; 43.9 µM (inactive) in the assay on UACC-62; 26.4 µM (inactive) with OVCAR-8; 11.5 µM (inactive) with HCT-116; 13.8 µM (inactive) with A549; 32.4 µM (inactive) in the assay with SW-620. Further, the GI50 is 63 µM (inactive) in the assay on OVCAR-5; 37.2 µM (inactive) in the assay on SF-268; 25.1 µM (inactive) with NCI-H226; 47 µM with HCT-15; 4.43 µM (inactive) with MOLT-4; 12.2 µM (inactive) in the assay with CCRF-CEM.

With `O=c1c2ccccc2oc2nccnc12`, the GI50 in the assay on UO-31, in the assay with SN12C, with U-251, with CAKI-1, in the assay on HT-29 and in the assay on HCC 2998 was > 100 µM (inactive) throughout. The GI50 in the assay on K562, in the assay on UACC-62, in the assay on OVCAR-8, with HCT-116, with A549 and with SW-620 was > 100 µM (inactive) throughout. Further, the GI50 in the assay on OVCAR-5 is > 100 µM (inactive); in the assay with SF-268 it was > 100 µM (inactive); in the assay with HCT-15 it was above 100 µM; with MOLT-4, > 100 µM (inactive); with CCRF-CEM, > 100 µM (inactive).

Consider `Nc1nc(Cl)cc(OCC2(CO)CC=CC2)n1`, for which the GI50 is > 100 µM (inactive) in the assay on SN12C; 46.2 µM (inactive) with U-251; > 100 µM (inactive) with HT-29; > 100 µM (inactive) in the assay on HCC 2998; 95.7 µM (inactive) in the assay with K562; > 100 µM (inactive) with NCI-H522. Besides, the GI50 with OVCAR-8, in the assay on HCT-116, in the assay on A549, with SW-620, in the assay on OVCAR-5 and with SF-268 was > 100 µM (inactive) each time. For the same molecule, the GI50 with NCI-H226 is > 100 µM (inactive); in the assay with HCT-15 it was above 100 µM; in the assay on MOLT-4, > 100 µM (inactive); in the assay on CCRF-CEM it was > 100 µM (inactive).

As for `C#C[C@@]1(O)CCCC2=CC(=O)C[C@]21C`, the GI50 in the assay with UO-31, in the assay on SN12C, in the assay on U-251, in the assay on HT-29, with HCC 2998 and with K562 was > 100 µM (inactive) in each case. The GI50 in the assay with NCI-H522, in the assay on OVCAR-8, with A549, in the assay on SW-620, with OVCAR-5 and in the assay with SF-268 was > 100 µM (inactive) in each case. Besides, the GI50 is > 100 µM (inactive) with NCI-H226, above 100 µM with HCT-15, > 100 µM (inactive) with MOLT-4 and > 100 µM (inactive) with CCRF-CEM.

For the molecule `CCCC(C)NC1=C(NC(C)=O)C(=O)c2ccccc2C1=O` (stereo unspecified), the GI50 in the assay with UO-31, with SN12C, in the assay with U-251, in the assay with HT-29, with HCC 2998 and in the assay on K562 was > 100 µM (inactive) in each case. Also, the GI50 in the assay with UACC-62 is > 100 µM (inactive); in the assay on NCI-H522 it was 64.7 µM (inactive); with OVCAR-8, > 100 µM (inactive); in the assay on HCT-116, > 100 µM (inactive); with A549 it was > 100 µM (inactive); in the assay on SW-620, > 100 µM (inactive). Also, the GI50 is > 100 µM (inactive) in the assay with SF-268; > 100 µM (inactive) in the assay on NCI-H226; above 100 µM in the assay on HCT-15; > 100 µM (inactive) in the assay with MOLT-4; > 100 µM (inactive) with CCRF-CEM.

As to `COc1cc(C2c3cc4c(cc3[C@@H](Nc3ccc(F)cc3)C3CO[C@@H](O)[C@H]23)OCO4)cc(OC)c1O` (stereo partly specified), the GI50 is 1.24 µM (inactive) in the assay with UO-31; 5.12 µM (inactive) with SN12C; 1.69 µM (inactive) in the assay with U-251; 11 µM (inactive) with HCC 2998; 4.37 µM (inactive) in the assay on K562; 3.16 µM (inactive) in the assay on NCI-H522. For the same molecule, the GI50 was 6.01 µM (inactive) in the assay with OVCAR-8; 3.72 µM (inactive) in the assay with HCT-116; 0.853 µM (active) in the assay on A549; 8.38 µM (inactive) in the assay on SW-620; 1.46 µM (inactive) with OVCAR-5; 6.71 µM (inactive) with SF-268. The GI50 is 3.89 µM in the assay with HCT-15, 0.236 µM (active) with MOLT-4 and 0.925 µM (active) with CCRF-CEM.

Turning to `COC(=O)C[S+]([O-])c1ccccc1` (stereo unspecified), the GI50 in the assay with UO-31 is 4.63 µM (inactive); in the assay on SN12C it was 17.6 µM (inactive); with U-251, 24.4 µM (inactive); with CAKI-1, 58.1 µM (inactive); in the assay on HT-29, 36.6 µM (inactive); in the assay on HCC 2998 it was 25.3 µM (inactive). In addition, the GI50 is 35.9 µM (inactive) with K562; 29.2 µM (inactive) in the assay with UACC-62; 13.8 µM (inactive) in the assay on NCI-H522; 27.5 µM (inactive) in the assay on OVCAR-8; 30.3 µM (inactive) in the assay on HCT-116; 26.8 µM (inactive) with A549. Besides, the GI50 with SW-620 is 38.3 µM (inactive); with OVCAR-5, 68.4 µM (inactive); in the assay on SF-268 it was 14 µM (inactive); in the assay on HCT-15, 28.7 µM; in the assay with MOLT-4, 10.8 µM (inactive); in the assay with CCRF-CEM, 7.67 µM (inactive).
